Experimental data reported in ChEMBL document CHEMBL1250443, “Microarray-based method for monitoring yeast overexpression strains reveals small-molecule targets in TOR pathway” (Nat Chem Biol, 2006).

Legend:
[1] = Inhibition of TOR signaling in wild-type Saccharomyces cerevisiae transformed with overexpression plasmids assessed as decreased DCR2 gene expression by microarray
[2] = Inhibition of TOR signaling in wild-type Saccharomyces cerevisiae transformed with overexpression plasmids assessed as increased HSP104 gene expression by microarray
[3] = Inhibition of TOR signaling in wild-type Saccharomyces cerevisiae transformed with overexpression plasmids assessed as increased SSH1 gene expression by microarray
[4] = Inhibition of TOR signaling in wild-type Saccharomyces cerevisiae transformed with overexpression plasmids assessed as increased WRS1 gene expression by microarray
[5] = Inhibition of TOR signaling in wild-type Saccharomyces cerevisiae transformed with overexpression plasmids assessed as increased RTT106 gene expression by microarray
[6] = Inhibition of TOR signaling in wild-type Saccharomyces cerevisiae transformed with overexpression plasmids assessed as increased UTP8 gene expression by microarray
[7] = Inhibition of TOR signaling in wild-type Saccharomyces cerevisiae transformed with overexpression plasmids assessed as decreased VTI1 gene expression by microarray
[8] = Inhibition of TOR signaling in wild-type Saccharomyces cerevisiae transformed with overexpression plasmids assessed as increased DSL1 gene expression by microarray
[9] = Inhibition of TOR signaling in wild-type Saccharomyces cerevisiae transformed with overexpression plasmids assessed as decreased FRE5 gene expression by microarray
[10] = Inhibition of TOR signaling in wild-type Saccharomyces cerevisiae transformed with overexpression plasmids assessed as decreased SET4 gene expression by microarray
[11] = Inhibition of TOR signaling in wild-type Saccharomyces cerevisiae transformed with overexpression plasmids assessed as decreased REH1 gene expression by microarray
[12] = Inhibition of TOR signaling in wild-type Saccharomyces cerevisiae transformed with overexpression plasmids assessed as increased YFR044C gene expression by microarray
[13] = Inhibition of TOR signaling in wild-type Saccharomyces cerevisiae transformed with overexpression plasmids assessed as increased YLR297W gene expression by microarray
[14] = Inhibition of TOR signaling in wild-type Saccharomyces cerevisiae transformed with overexpression plasmids assessed as decreased YNL305C gene expression by microarray
[15] = Inhibition of TOR signaling in wild-type Saccharomyces cerevisiae transformed with overexpression plasmids assessed as decreased YPL264C gene expression by microarray
Saccharomyces cerevisiae [16] = experiment: Increase of YDR514C gene expression in wild-type Saccharomyces cerevisiae transformed with overexpression plasmids by microarray; assay type: functional
Saccharomyces cerevisiae [17] = experiment: Decrease of SGN1 gene expression in wild-type Saccharomyces cerevisiae transformed with overexpression plasmids by microarray; assay type: functional
[18] = Inhibition of TOR signaling in wild-type Saccharomyces cerevisiae transformed with overexpression plasmids assessed as increased CDC5 gene expression by microarray
[19] = Inhibition of TOR signaling in wild-type Saccharomyces cerevisiae transformed with overexpression plasmids assessed as decreased HPA2 gene expression by microarray
[20] = Inhibition of TOR signaling in wild-type Saccharomyces cerevisiae transformed with overexpression plasmids assessed as decreased HMI1 gene expression by microarray

CO[C@H]1C[C@@H]2CC[C@@H](C)[C@@](O)(O2)C(=O)C(=O)N2CCCC[C@H]2C(=O)O[C@H]([C@H](C)C[C@@H]2CC[C@@H](O)[C@H](OC)C2)CC(=O)[C@H](C)/C=C(\C)[C@@H](O)[C@@H](OC)C(=O)[C@H](C)C[C@H](C)/C=C/C=C/C=C/1C [SIROLIMUS]
fold change (FC) [1]: -5.9 | fold change (FC) [2]: 6.3 | fold change (FC) [3]: 2.3 | fold change (FC) [4]: 2.8 | fold change (FC) [5]: 8.3 | fold change (FC) [6]: 2.6 | fold change (FC) [7]: -2.8 | fold change (FC) [8]: 2.4 | fold change (FC) [9]: -8.1 | fold change (FC) [10]: -2.2 | fold change (FC) [11]: -2.2 | fold change (FC) [12]: 4.7 | fold change (FC) [13]: 3.6 | fold change (FC) [14]: -2.5 | fold change (FC) [15]: -3.2 | fold change (FC) (Saccharomyces cerevisiae [16]): -3.1 | fold change (FC) (Saccharomyces cerevisiae [17]): -2.1 | fold change (FC) [18]: 3.4 | fold change (FC) [19]: -2.1 | fold change (FC) [20]: -2.3
